Literature values, collected in patent US6455086B1, “Microorganism reduction methods and compositions for food cleaning” (The Procter & Gamble Company, priority 1999, dated 2002).
Counter-ions that a name gives are not always drawn.

How the values were obtained:
[1] = system: typical Gram negative and positive bacteria, fungi and yeasts; settings: used at a level from about 0.001% to about 0.5% by weight of the usage composition

Row | solubility in water | Structure (SMILES) | effectiveness against typical Gram negative and positive bacteria, fungi and yeasts [1]
1 |  | Cn1sc2c(c1=O)CCC2 [Promexal, 2-methyl-4,5-trimethylene4-isothiazolin-3-one] | effective
2 | about 70% | [H]/N=C(\N/C(=N/[H])NCCCCCCNC(=N)NC(=N)Nc1ccc(Cl)cc1)Nc1ccc(Cl)cc1 [chlorhexidine digluconate salt, 1,1′-hexamethylene bis(5-(p-chlorophenyl)biguanide)] | 
3 | about 1.8% | [H]/N=C(\N/C(=N/[H])NCCCCCCNC(=N)NC(=N)Nc1ccc(Cl)cc1)Nc1ccc(Cl)cc1 [chlorhexidine diacetate salt, 1,1′-hexamethylene bis(5-(p-chlorophenyl)biguanide)] | 
4 |  | O=c1[nH]sc2ccccc12 [Proxel, 1,2-benzisothiazolin-3-one] | effective
